{
  "source": "patent US20170205426A1",
  "about": "“RAPID MASS SPECTROMETRY METHODS FOR ANTIMICROBIAL SUSCEPTIBILITY TESTING USING TOP-DOWN MASS SPECTROMETRY” (priority 2016, published 2017)",
  "key": {"CTX-M15": {"test_system": "CTX-M15", "experiment": "Bottom-up mass spectrometry sequence coverage of CTX-M15 in K. pneumoniae cultures induced with ertapenem", "type": "cell-based, Klebsiella pneumoniae", "conditions": "for CTX-M15 Sequence Coverage: induced with 0.5 mM ertapenem", "experimental": "(§1) In some embodiments, a sample of the microbial culture or biological sample is exposed to conditions that induce antimicrobial resistance in the microorganisms prior to testing. In other embodiments, a sample of the microbial culture or biological sample is tested without intentionally inducing antimicrobial resistance in the microorganisms. In certain embodiments, many resistance mechanisms may not have to be induced in order to detect the target proteins of interest. For example, we have observed that the production of PBP2a from MRSA samples varies in its baseline expression without induction. In examining expression of carbapenem-resistant Enterobacteriaceae (CRE)-related resistances, several strains of Klebsiella pneumoniae that contained different combinations of the resistance marker beta-lactamase were tested to determine the effect on detection for induced and non-induced samples. Table 1 lists various resistant and susceptible strains of K. pneumoniae which were tested with 0.5 mM of ertapenem as an inducer. In these experiments, bottom-up mass spectrometry was used to measure sequence coverage of two representative beta-lactamases, KPC-2 and CTX-M15. The percent sequence coverage observed is an approximate measure of the amount of a given protein present in any given extract. The higher the percent sequence coverage observed, the higher the level of that given protein in an extract."}, "KPC-2": {"test_system": "KPC-2", "experiment": "Bottom-up mass spectrometry sequence coverage of KPC-2 in K. pneumoniae cultures induced with ertapenem", "type": "cell-based, Klebsiella pneumoniae", "conditions": "for KPC-2 Sequence Coverage: induced with 0.5 mM ertapenem", "experimental": "as §1"}, "[1]": {"conditions": "variety of K. pneumoniae strains, 0.5 mM ertapenem as inducer"}},
  "data": [
    {"smiles": "C[C@@H](O)[C@H]1C(=O)N2C(C(=O)O)=C(S[C@@H]3CN[C@H](C(=O)Nc4cccc(C(=O)O)c4)C3)[C@H](C)[C@H]12", "note": "[ertapenem]", "values": [
      {"measurement": "CTX-M15 Sequence Coverage", "setting": "CTX-M15; strain 13883 (Susceptible)", "result": "not detected"},
      {"measurement": "CTX-M15 Sequence Coverage", "setting": "CTX-M15; strain BAA-1903 (Resistant)", "result": "not detected"},
      {"measurement": "CTX-M15 Sequence Coverage", "setting": "CTX-M15; strain BAA-1905 (Resistant)", "result": "not detected"},
      {"measurement": "CTX-M15 Sequence Coverage", "setting": "CTX-M15; strain BAA-2473 (Resistant)", "result": "70% ± 0%"},
      {"measurement": "CTX-M15 Sequence Coverage", "setting": "CTX-M15; strain BAA-2578 (Resistant)", "result": "60% ± 2%"},
      {"measurement": "percent sequence coverage of CTX-M15, induced versus non-induced", "setting": "CTX-M15; [1]", "result": "the same regardless of induction"},
      {"measurement": "KPC-2 Sequence Coverage", "setting": "KPC-2; strain 13883 (Susceptible)", "result": "not detected"},
      {"measurement": "KPC-2 Sequence Coverage", "setting": "KPC-2; strain BAA-1903 (Resistant)", "result": "73% ± 0%"},
      {"measurement": "KPC-2 Sequence Coverage", "setting": "KPC-2; strain BAA-1905 (Resistant)", "result": "85% ± 5%"},
      {"measurement": "KPC-2 Sequence Coverage", "setting": "KPC-2; strain BAA-2473 (Resistant)", "result": "not detected"},
      {"measurement": "KPC-2 Sequence Coverage", "setting": "KPC-2; strain BAA-2578 (Resistant)", "result": "not detected"},
      {"measurement": "percent sequence coverage of KPC-2, induced versus non-induced", "setting": "KPC-2; [1]", "result": "the same regardless of induction"}
    ]}
  ]
}
